The values that follow are results of earlier work, collected in patent publication US8969412B2, “Use for a composition comprising chloroprocaine HCL, a new composition comprising chloroprocaine HCL and a method for its manufacture” (Sintetica S.A., priority 2005, dated 2015).

For series [1] the following is noted: in vivo.
The conditions of series [2]: intrathecal application.
For series [3] the following is noted: intrathecal anaesthesia.

In the case of `CCN(CC)CCOC(=O)c1ccc(N)cc1Cl` [Chloroprocaine, 2-(diethylaminoethyl)-4-amino-chlorobenzoate], the systemic toxicity result in series [1] was “very low systemic toxicity”.
For the compound `CCN(CC)CC(=O)Nc1c(C)cccc1C` [lidocaine], the “transient neurologic syndrome (TNS)” value in series [2] is given as “associated with symptoms of so-called transient neurologic syndrome (TNS)”.
Regarding `CCN(CC)CCOC(=O)c1ccc(N)cc1` [procaine], in series [3], the inadequacy rate is given as 17%.
